Assay results: article PMC10649927, “Integration of Deep Learning and Sequential Metabolism to Rapidly Screen Dipeptidyl Peptidase (DPP)-IV Inhibitors from Gardenia jasminoides Ellis” (Molecules, 2023)

target: T1, human recombinant DPP-IV (Homo sapiens, UniProt P27487); assay: Gly-Pro-pNA hydrolysis, absorbance at […] nm; type: biochemical; settings: Gly-Pro-pNA substrate (20 µL of 1.75 mM), 0.1 M Tris-HCl, 0.1 M NaCl, 1 mM EDTA, pH 8.0, 37 °C, 30 min
T1 construct: gene DPP4; commercial recombinant human enzyme from ProSpec (Rehovot, Israel)
T1 sequence (P27487 29-766 limits assumed): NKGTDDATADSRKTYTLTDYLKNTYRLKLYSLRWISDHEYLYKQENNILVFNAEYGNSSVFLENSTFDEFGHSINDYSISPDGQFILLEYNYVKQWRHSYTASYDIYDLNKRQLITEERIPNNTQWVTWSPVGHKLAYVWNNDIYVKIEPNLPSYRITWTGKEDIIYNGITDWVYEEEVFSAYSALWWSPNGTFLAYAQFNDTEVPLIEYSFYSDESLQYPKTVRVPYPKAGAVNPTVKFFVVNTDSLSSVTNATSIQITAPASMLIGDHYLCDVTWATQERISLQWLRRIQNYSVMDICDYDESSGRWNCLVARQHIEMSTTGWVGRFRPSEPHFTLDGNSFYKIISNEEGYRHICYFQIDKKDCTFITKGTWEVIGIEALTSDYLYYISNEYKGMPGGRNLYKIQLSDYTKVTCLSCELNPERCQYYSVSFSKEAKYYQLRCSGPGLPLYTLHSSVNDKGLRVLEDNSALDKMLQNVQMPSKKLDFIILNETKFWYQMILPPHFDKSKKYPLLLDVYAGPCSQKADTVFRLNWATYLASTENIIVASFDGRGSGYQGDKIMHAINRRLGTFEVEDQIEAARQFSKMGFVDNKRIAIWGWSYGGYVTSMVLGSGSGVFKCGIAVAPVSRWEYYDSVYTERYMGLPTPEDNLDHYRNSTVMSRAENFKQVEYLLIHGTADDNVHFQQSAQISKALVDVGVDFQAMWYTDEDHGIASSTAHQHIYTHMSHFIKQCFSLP

How did the “% inhibition at 1 mM” value turn out when `C[C@]1(O)C[C@@H](O)[C@@H]2C(C(=O)O)=CO[C@@H](O[C@@H]3O[C@H](CO)[C@@H](O)[C@H](O)[C@H]3O)[C@@H]21` [compound 6, shanzhiside] was run?
The value was “the six GJE compounds inhibited the activity of DPP-IV”.

`O=C(O)C1=CO[C@@H](O[C@@H]2O[C@H](CO)[C@@H](O)[C@H](O)[C@H]2O)[C@@H]2C(CO)=CC[C@H]12` [compound 4, geniposidic acid] was tested. Which “% inhibition at 1 mM” value did it give?
The value was “the six GJE compounds inhibited the activity of DPP-IV”.

How did the “% inhibition at 1 mM” value turn out when `COC(=O)C1=CO[C@@H](O[C@@H]2O[C@H](CO)[C@@H](O)[C@H](O)[C@H]2O)[C@H]2[C@@H]1[C@H](O)C[C@]2(C)O` [compound 5, shanzhiside methyl ester] was run?
The value was “the six GJE compounds inhibited the activity of DPP-IV”.

`O=C(O)C1=CO[C@@H](O[C@@H]2O[C@H](CO)[C@@H](O)[C@H](O)[C@H]2O)[C@@H]2C(CO)=C[C@@H](O)[C@H]12` [compound 3, scandoside] was tested. Which “% inhibition at 1 mM” value did it give?
The value was “the six GJE compounds inhibited the activity of DPP-IV”.
